In US20240158446A1, “CYCLIC COMPOUND HAVING SELECTIVE INHIBITORY ACTION ON KRAS OVER HRAS AND NRAS” (CHUGAI SEIYAKU KABUSHIKI KAISHA, priority 2021, published 2024):
Where two headings read alike, the source gives them in different places. *1 amine or outer side, *2 acyl side, *3 side chain or, on linkers, in order; H or OH if unused. Where a SMILES comes first, the peptide text is derived from it. Bridges are numbered along the chain shown (N, C = ends). [ ]: non-standard residue; d: D form. The star is where a group is joined. hPhe(3,5-F2-4-CF3) = N[C@@H](CCc1cc(F)c(C(F)(F)F)c(F)c1)C(=O)O; hPhe(3-Cl-4-CF3) = N[C@@H](CCc1ccc(C(F)(F)F)c(Cl)c1)C(=O)O; NPrPhe(4-CF3) = CCCN[C@@H](Cc1ccc(C(F)(F)F)cc1)C(=O)O; NEtPhe(4-CF3) = CCN[C@@H](Cc1ccc(C(F)(F)F)cc1)C(=O)O; X35 = COCCN([C@@H](Cc1ccc(C)cc1)C(=O)[*:2])[*:1]; NMeAbu(4,4,4-F3) = CN[C@@H](CC(F)(F)F)C(=O)O; NMeGly(cPent) = CN[C@H](C(=O)O)C1CCCC1; Pro(4,4-F2) = O=C(O)[C@@H]1CC(F)(F)CN1; NMeD = CN[C@@H](CC(=O)O)C(=O)O; NMeL = CN[C@@H](CC(C)C)C(=O)O; Morpholide = C1CN(*)CCO1; Ac5c = NC1(C(=O)O)CCCC1; Ac4c = NC1(C(=O)O)CCC1; NEtG = CCNCC(=O)O; Sar = CNCC(=O)O

How the values were obtained:
[1] = molecular target: GDP-bound HRAS wild-type protein (Homo sapiens, UniProt P01112); assay: Binding to HRAS by surface plasmon resonance (SPR), Single Cycle Kinetics; details: for HRAS/KRAS (ratio of KD value with respect to HRAS to KD value with respect to KRAS) / HRAS/KRAS (ratio of KD value for HRAS to KD value for KRAS): SPR, GDP-bound HRAS wild-type protein vs GDP-bound KRAS wild-type protein
GDP-bound HRAS wild-type protein, sequence (P01112 whole entry): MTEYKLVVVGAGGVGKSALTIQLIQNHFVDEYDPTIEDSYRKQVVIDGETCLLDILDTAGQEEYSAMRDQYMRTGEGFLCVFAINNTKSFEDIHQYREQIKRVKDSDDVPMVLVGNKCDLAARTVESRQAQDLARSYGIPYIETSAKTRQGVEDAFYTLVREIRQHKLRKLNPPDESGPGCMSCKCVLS

[2] = molecular target: GDP-bound NRAS wild-type protein (Homo sapiens, UniProt P01111); assay: Binding to NRAS by surface plasmon resonance (SPR), Single Cycle Kinetics; details: for NRAS/KRAS (ratio of KD value with respect to NRAS to KD value with respect to KRAS) / NRAS/KRAS (ratio of KD value for NRAS to KD value for KRAS): SPR, GDP-bound NRAS wild-type protein vs GDP-bound KRAS wild-type protein
GDP-bound NRAS wild-type protein, sequence (P01111 whole entry): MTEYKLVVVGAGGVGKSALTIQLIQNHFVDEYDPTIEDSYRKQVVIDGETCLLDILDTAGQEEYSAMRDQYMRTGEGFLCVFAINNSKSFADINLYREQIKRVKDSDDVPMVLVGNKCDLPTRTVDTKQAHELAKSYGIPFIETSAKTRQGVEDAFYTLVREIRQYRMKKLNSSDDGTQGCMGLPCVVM

[3] = molecular target: GDP-bound KRAS wild-type protein (Homo sapiens, UniProt P01116); assay: Binding to KRAS by surface plasmon resonance (SPR), Single Cycle Kinetics; details: GDP-bound KRAS wild-type protein, read-out: KRAS KD
GDP-bound KRAS wild-type protein, sequence (P01116 whole entry): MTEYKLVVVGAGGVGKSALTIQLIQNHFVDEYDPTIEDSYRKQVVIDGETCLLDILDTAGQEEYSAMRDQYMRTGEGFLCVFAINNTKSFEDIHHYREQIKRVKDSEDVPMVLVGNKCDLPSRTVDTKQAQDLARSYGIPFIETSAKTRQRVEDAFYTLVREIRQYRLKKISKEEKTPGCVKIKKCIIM

[4] = SPR Single Cycle Kinetics, 1:1 binding model

Kd [3, 4]	SMILES	HRAS/KRAS (ratio of KD value with respect to HRAS to KD value with respect to KRAS) [1]	NRAS/KRAS (ratio of KD value with respect to NRAS to KD value with respect to KRAS) [2]	HRAS/KRAS (ratio of KD value for HRAS to KD value for KRAS) [1]	NRAS/KRAS (ratio of KD value for NRAS to KD value for KRAS) [2]	other results
430 pM	CCCN1C(=O)CN(C)C(=O)CN(C)C(=O)[C@H]([C@@H](C)CC)NC(=O)[C@H](CC(C)C)N(C)C(=O)C[C@@H](C(=O)N(C)C)N(C)C(=O)[C@H](CC(F)(F)F)N(C)C(=O)C2(CCCC2)NC(=O)[C@@H]2CCCN2C(=O)[C@H](CCc2cc(F)c(C(F)(F)F)c(F)c2)NC(=O)CN(C)C(=O)[C@@H]1Cc1ccc(C(F)(F)F)cc1 [PP0746] ([NMeL]I[Sar][Sar][NPrPhe(4-CF3)][Sar][hPhe(3,5-F2-4-CF3)]P[Ac5c][NMeAbu(4,4,4-F3)][NMeD]-NMe2; lactam N-11)	C (A compound having a KD ratio of 0.1 or more and less than 3 is denoted as C)	B (a compound having 3 or more and less than 10 is denoted as B)	–	–	–
42 pM	CCO[C@@H]1C[C@H]2C(=O)NC3(CCC3)C(=O)N(C)[C@@H](C3CCCC3)C(=O)N(C)[C@H](C(=O)N3CCOCC3)CC(=O)N(C)[C@@H](CC3CC3)C(=O)N[C@@H]([C@@H](C)CC)C(=O)N(C)CC(=O)N(C)[C@H]3CCCCN(C3=O)[C@@H](Cc3ccc(C(F)(F)F)cc3)C(=O)N(C)CC(=O)N[C@@H](CCc3cc(F)c(C(F)(F)F)c(F)c3)C(=O)N2C1 [PP0712]	C (A compound having a KD ratio of 0.1 or more and less than 3 is denoted as C)	C (A compound having a KD ratio of 0.1 or more and less than 3 is denoted as C)	–	–	–
850 pM	CCC[C@H]1C(=O)N[C@@H]([C@@H](C)CC)C(=O)N(C)CC(=O)N(C)[C@H]2C/C=C\CCN(C2=O)[C@@H](Cc2ccc(C(F)(F)F)cc2)C(=O)N(C)CC(=O)N[C@@H](CCc2ccc(C(F)(F)F)c(Cl)c2)C(=O)N2CCCCC[C@H]2C(=O)NC2(CC(C)(C)C2)C(=O)N(C)[C@@H](C(CC)CC)C(=O)N(C)[C@H](C(=O)N(C)C)CC(=O)N1C [PP2964]	–	–	–	–	HRAS/KRAS (ratio of KD value with respect to GDP-bound HRAS wild-type protein to KD value with respect to KRAS) ([1]; SPR KD ratio HRAS/KRAS, class symbols): A (a compound having 10 or more and less than 20 is denoted as A); NRAS/KRAS (ratio of KD value with respect to GDP-bound NRAS wild-type protein to KD value with respect to KRAS) ([2]; SPR KD ratio NRAS/KRAS, class symbols): AA (a compound having 20 or more is denoted as AA)
1600 pM	CC[C@H](C)[C@@H]1NC(=O)[C@H](CC)N(C)C(=O)C[C@@H](C(=O)N(C)C)N(C)C(=O)[C@H](C2CCCC2)N(C)C(=O)C2(CCC2)NC(=O)[C@@H]2C[C@H](N3CCC(F)(F)CC3)CN2C(=O)[C@H](CCc2cc(F)c(C(F)(F)F)c(F)c2)NC(=O)CN(C)C(=O)[C@H](Cc2ccc(C(F)(F)F)cc2)N2CCCCC[C@@H](C2=O)N(C)C(=O)CN(C)C1=O [PP0731]	B (a compound having 3 or more and less than 10 is denoted as B)	B (a compound having 3 or more and less than 10 is denoted as B)	–	–	–

The next lines start with the compound.

SMILES	Kd [3, 4]	HRAS/KRAS (ratio of KD value with respect to HRAS to KD value with respect to KRAS) [1]	NRAS/KRAS (ratio of KD value with respect to NRAS to KD value with respect to KRAS) [2]	HRAS/KRAS (ratio of KD value for HRAS to KD value for KRAS) [1]	NRAS/KRAS (ratio of KD value for NRAS to KD value for KRAS) [2]	other results
CCO[C@@H]1C[C@H]2C(=O)NC3(CCC3)C(=O)N(C)[C@@H](C3CCCC3)C(=O)N(C)[C@H](C(=O)N3CCOCC3)CC(=O)N(C)[C@@H](COC)C(=O)N[C@@H]([C@@H](C)CC)C(=O)N(C)CC(=O)N(C)[C@H]3CCCCCN(C3=O)[C@@H](Cc3ccc(C(F)(F)F)cc3)C(=O)N(C)CC(=O)N[C@@H](CCc3cc(F)c(C(F)(F)F)c(F)c3)C(=O)N2C1 [PP0689]	300 pM	B (a compound having 3 or more and less than 10 is denoted as B)	B (a compound having 3 or more and less than 10 is denoted as B)	–	–	–
CCCN1C(=O)CN(C)C(=O)CN(CC)C(=O)[C@H]([C@@H](C)CC)NC(=O)[C@H](CC(C)C)N(C)C(=O)C[C@@H](C(=O)N(C)C)N(C)C(=O)[C@H](C2CCCC2)N(C)C(=O)C2(CCC2)NC(=O)[C@@H]2CC(F)(F)CN2C(=O)[C@H](CCc2ccc(C(F)(F)F)c(Cl)c2)NC(=O)CN(C)C(=O)[C@@H]1Cc1ccc(C(F)(F)F)cc1 [PP0426] ([NMeL]I[NEtG][Sar][NPrPhe(4-CF3)][Sar][hPhe(3-Cl-4-CF3)][Pro(4,4-F2)][Ac4c][NMeGly(cPent)][NMeD]-NMe2; lactam N-11)	120 pM	C (A compound having a KD ratio of 0.1 or more and less than 3 is denoted as C)	C (A compound having a KD ratio of 0.1 or more and less than 3 is denoted as C)	–	–	–
CCO[C@@H]1C[C@H]2C(=O)NC3(CCC3)C(=O)N(C)[C@@H](C3CCCC3)C(=O)N(C)[C@H](C(=O)N(C)C)CC(=O)N(C)[C@@H](CC)C(=O)N[C@@H]([C@@H](C)CC)C(=O)N(C)CC(=O)N(C)[C@H]3CCCCCN(C3=O)[C@@H](Cc3ccc(C(F)(F)F)cc3)C(=O)N(C)CC(=O)N[C@@H](CCc3cc(F)c(C(F)(F)F)c(F)c3)C(=O)N2C1 [PP0663]	280 pM	B (a compound having 3 or more and less than 10 is denoted as B)	B (a compound having 3 or more and less than 10 is denoted as B)	–	–	–
CC[C@H](C)[C@@H]1NC(=O)[C@H](CC(C)C)N(C)C(=O)C[C@@H](C(=O)N2CCOCC2)N(C)C(=O)[C@H](C2CCCC2)N(C)C(=O)C2(CCCC2)NC(=O)[C@@H]2CCCN2C(=O)[C@H](CCc2ccc(C(F)(F)F)c(Cl)c2)NC(=O)CN(C)C(=O)[C@H](Cc2ccc(C)cc2)N(CCOC)C(=O)CN(C)C(=O)CN(C)C1=O [PP0104] ([NMeL]I[Sar][Sar][X35][Sar][hPhe(3-Cl-4-CF3)]P[Ac5c][NMeGly(cPent)][NMeD]-Morpholide; lactam N-11)	250 pM	–	–	C (A compound having a KD ratio of 0.1 or more and less than 3 is denoted as C)	B (a compound having 3 or more and less than 10 is denoted as B)	–
CC[C@H](C)[C@@H]1NC(=O)[C@H](CC(C)C)N(C)C(=O)C[C@@H](C(=O)N2CCOCC2)N(C)C(=O)[C@H](C2CCCC2)N(C)C(=O)C2(CCCC2)NC(=O)[C@@H]2CCCN2C(=O)[C@H](CCc2ccc(C(F)(F)F)c(Cl)c2)NC(=O)CN(C)C(=O)[C@H](Cc2ccc(C(F)(F)F)cc2)N(CC)C(=O)CN(C)C(=O)CN(C)C1=O [PP0023] ([NMeL]I[Sar][Sar][NEtPhe(4-CF3)][Sar][hPhe(3-Cl-4-CF3)]P[Ac5c][NMeGly(cPent)][NMeD]-Morpholide; lactam N-11)	140 pM	–	–	C (A compound having a KD ratio of 0.1 or more and less than 3 is denoted as C)	B (a compound having 3 or more and less than 10 is denoted as B)	–
CCO[C@@H]1C[C@H]2C(=O)NC3(CC(C)(C)C3)C(=O)N(C)[C@@H](C(CC)CC)C(=O)N(C)[C@H](C(=O)N(C)C)CC(=O)N(C)[C@@H](CC3CCC3)C(=O)N[C@@H]([C@@H](C)CC)C(=O)N(C)CC(=O)N(C)[C@H]3C/C=C\CCN(C3=O)[C@@H](Cc3ccc(C(F)(F)F)cc3)C(=O)N(C)CC(=O)N[C@@H](CCc3ccc(C(F)(F)F)c(Cl)c3)C(=O)N2C1 [PP2138]	–	–	–	A (a compound having 10 or more and less than 20 is denoted as A)	A (a compound having 10 or more and less than 20 is denoted as A)	Kd ([3]; SPR, Single Cycle Kinetics): 440 pM
CCO[C@@H]1C[C@H]2C(=O)NC3(CC(C)(C)C3)C(=O)N(C)[C@@H](C(CC)CC)C(=O)N(C)[C@H](C(=O)N(C)C)CC(=O)N(C)[C@@H](CC3CCC3)C(=O)N[C@@H]([C@@H](C)CC)C(=O)N(C)CC(=O)N(C)[C@H]3C/C=C\CCN(C3=O)[C@@H](Cc3ccc(C)cc3)C(=O)N(C)CC(=O)N[C@@H](CCc3ccc(Cl)c(Cl)c3)C(=O)N2C1 [PP2120]	–	–	–	A (a compound having 10 or more and less than 20 is denoted as A)	AA (a compound having 20 or more is denoted as AA)	Kd ([3]; SPR, Single Cycle Kinetics): 910 pM
CCO[C@@H]1C[C@H]2C(=O)NC3(CCC3)C(=O)N(C)[C@@H](C3CCCC3)C(=O)N(C)[C@H](C(=O)N(C)C)CC(=O)N(C)[C@@H](Cc3cccnc3)C(=O)N[C@@H]([C@@H](C)CC)C(=O)N(C)CC(=O)N(C)[C@H]3CCCCCN(C3=O)[C@@H](Cc3ccc(C(F)(F)F)cc3)C(=O)N(C)CC(=O)N[C@@H](CCc3cc(F)c(C(F)(F)F)c(F)c3)C(=O)N2C1 [PP0673]	120 pM	B (a compound having 3 or more and less than 10 is denoted as B)	B (a compound having 3 or more and less than 10 is denoted as B)	–	–	–
CC[C@H](C)[C@@H]1NC(=O)[C@H](CC2CC2)N(C)C(=O)C[C@@H](C(=O)N(C)C)N(C)C(=O)[C@H](C2CCCC2)N(C)C(=O)C2(CCC2)NC(=O)[C@@H]2C[C@H](C)CN2C(=O)[C@H](CCc2cc(F)c(C(F)(F)F)c(F)c2)NC(=O)CN(C)C(=O)[C@H](Cc2ccc(C(F)(F)F)cc2)N2CC/C=C\C[C@@H](C2=O)N(C)C(=O)CN(C)C1=O [PP1499, (2S,8S,12S,14S,20S,23S,27S,30S,36S,38Z)-20-cyclopentyl-27-(cyclopropylmethyl)-8-[2-[3,5-difluoro-4-(trifluoromethyl)phenyl]ethyl]-N,N,4,12,19,22,26,32,35-nonamethyl-30-[(1S)-1-methylpropyl]-3,6,9,15,18,21,25,28,31,34,42-undecaoxo-2-[[4-(trifluoromethyl)phenyl]methyl]spiro[1,4,7,10,16,19,22,26,29,32,35-undecazatricyclo[34.5.1.0^10,14]dotetracont-38-ene-17,1′-cyclobutane]-23-carboxamide]	–	–	–	–	–	HRAS/KRAS (ratio of KD value for HRAS to KD value for KRAS) ([1]; KD ratio class): B (a compound having 3 or more and less than 10 is denoted as B); NRAS/KRAS (ratio of KD value for NRAS to KD value for KRAS) ([2]; KD ratio class): A (a compound having 10 or more and less than 20 is denoted as A); Kd ([3]; SPR, Single Cycle Kinetics, 1:1 binding model): 54 pM
